The values below are quoted from earlier work in US20250360119A1, “THIAZOLIDINEDIONES FOR THE TREATMENT OF MUSCULAR DYSTROPHIES” (The Johns Hopkins University, priority 2022, published 2025).

For data set [1] the following is noted: clinical studies.
The next data set concerns aged mice. As to conditions: injected into the muscle directly.

Turning to `CN(CCOc1ccc(CC2SC(=O)NC2=O)cc1)c1ccccn1` (stereo not shown) [rosiglitazone], the cardiovascular toxicity result in data set [1] is “no longer considered significant issues”.

For `CC1(COc2ccc(CC3SC(=O)NC3=O)cc2)CCCCC1` (stereo not shown) [ciglitazone, 5-[4-(1-methylcyclohexylmethoxy)benzyl]-thiazolidine-2,4-dione], in the data set on KKAy mice, the blood glucose levels result is “reduce blood glucose levels without increasing insulin secretion” and the peripheral insulin resistance result is recorded as “reduce peripheral insulin resistance”.

B1: recombinant GDF3: recombinant Growth Differentiation Factor 3, a member of the TGFβ family (protein, UniProt Q9NR23 251-364, looked up)
Growth/differentiation factor …: AAIPVPKLSCKNLCHRHQLFINFRDLGWHKWIIAPKGFMANYCHGECPFSLTISLNSSNYAFMQALMHAVDPEIPQAVCIPTKLSPISMLYQDNNDNVILRHYEDMVVDECGCG
On to B1, for which the “delay in muscle regeneration after CTX injury” value with aged mice is “able to alleviate some of the delay”.
